Experimental data as given in patent US7749486B2 (Hoffmann-La Roche Inc., priority 2006, dated 2010).

Experiments:
[1] = tested on: LOX-GFP-LM cells; experiment: LOX-GFP-LM experimental metastasis model (lung homogenate fluorescence and survival); type: in vivo, SCID beige mice; conditions: for TGI % At day 26 (tumor growth inhibition relative to Vehicle control group) / RFU (mean ± SD) of lung homogenate / ILS % (increased lifetime-span) / 50% survival days / TGI % At day 25 (tumor growth inhibition relative to Vehicle control group): bid
Protocol: Female SCID beige mice were injected iv via the tail vein with 2 million cells in a volume of 200 μl serum free RPMI1640, randomized into groups, and treated as shown in Tables 6 and 7 with a variety of doses and/or dose schedules. […] The remaining mice from each group were monitored for survival benefit until they were moribund.
Two parameters were assessed for quantitative evaluation of anti-metastatic efficacy: 1) Fluorescence intensity of lung homogenates and 2) Survival.
5 mice per treatment group were removed from the study at Day 25 or 26 for evaluation of lung metastatic tumor burden. Mice were euthanized, and lungs were removed, placed in 3 ml saline, and homogenized. 0.2 ml of lung homogenate was transferred to a 96 well plate, and fluorescence was read using Acumen Explorer. […] Fluorescence was reported in relative fluorescence units (RFU). […] Statistical analysis was determined by Student-test or Mann-Whitney U test, and statistic differences between groups were considered to be significant when the probability value (p) was ≦0.05.
Survival represented overall metastatic status either due to lung metastasis or metastasis to other organs. Moribundity due to labored breathing or hind limb paralysis was monitored and recorded as the surrogate endpoint for survival. For survival assessment, results were plotted as the percentage survival against days after tumor implant. The Increased lifetime-span (% ILS) was calculated as: ILS %=100×[(median survival day of treated group−median survival day of control group)/median survival day of control group]. Median survival or (50% survival time) was determined utilizing Kaplan Meier survival analysis. […] Differences in survival were analyzed by the log-rank test. Statistic differences between groups were considered to be significant when the probability value (p) was ≦0.05.

[2] = tested on: LOX-GFP cells; experiment: LOX-GFP peritoneal (ascites) model; type: in vivo, Nu/Nu mice
Protocol: Human melanoma LOX-GFP cells, prepared in accordance with the procedure of Example 3, were maintained in RPMI 1640 medium plus 10% FBS, and 1% Geneticin (G418).
Mice were euthanized, and then a small incision was made along the midline of the abdomen through the skin and peritoneum. A glass Pasteur pipet was utilized to aspirate and remove ascites fluid from the peritoneum, and the ascites was transferred to a 15 ml tube. 3 ml saline was used to rinse the peritoneal cavity, and all of the saline was recovered and transferred into the 15 ml tube containing the ascites fluid. The ascites cell suspension was filtered through a 40 μm nylon filter to obtain a single cell suspension and centrifuged at 1500 rpm for 10 min. The supernatant was removed, and the cell pellet was resuspended in 2 ml of fresh saline. 0.1 ml from each sample was transferred into a 96 well plate to evaluate cell number (reported as relative fluorescence units) utilizing an Acumen Explorer.

[3] = 25, 50, 100 mg/kg po bid, 6 doses (Days 4, 5 & 6), ascites harvest Day 7

Structure (SMILES): COc1ccc(C2=N[C@@H](c3ccc(Cl)cc3)[C@@H](c3ccc(Cl)cc3)N2C(=O)N2CCNC(=O)C2)c(OC(C)C)c1 (stereo in doubt) [Compound D, 4-[(4S,5R)-4,5-Bis-(4-chloro-phenyl)-2-(2-isopropoxy-4-methoxy-phenyl)-4,5-dihydro-imidazole-1-carbonyl]-piperazin-2-one]
- TGI % At day 26 (tumor growth inhibition relative to Vehicle control group) ([1]; 200 mg/kg po, Day 3-21): 96.2%
- RFU (mean ± SD) of lung homogenate ([1]; 200 mg/kg po, Day 3-21, lungs at day 26): 2359191 ± 526586 RFU
- ILS % (increased lifetime-span) ([1]; 200 mg/kg po, Day 3-d21): 29%
- 50% survival days ([1]; 200 mg/kg po, Day 3-d21, Vehicle 28 days): 36 days
- TGI % At day 26 (tumor growth inhibition relative to Vehicle control group) ([1]; 200 mg/kg po, Day −1-7): 66.0%
- RFU (mean ± SD) of lung homogenate ([1]; 200 mg/kg po, Day −1-7, lungs at day 26): 21092887 ± 10460489 RFU
- TGI % At day 26 (tumor growth inhibition relative to Vehicle control group) ([1]; 200 mg/kg po, Day −1-21): 78.7%
- RFU (mean ± SD) of lung homogenate ([1]; 200 mg/kg po, Day −1-21, lungs at day 26): 13230372 ± 11960417 RFU
- ILS % (increased lifetime-span) ([1]; 200 mg/kg po, Day −1-d7): 0%
- 50% survival days ([1]; 200 mg/kg po, Day −1-d7, Vehicle 28 days): 28 days
- ILS % (increased lifetime-span) ([1]; 200 mg/kg po, Day −1-d21): 10.7%
- 50% survival days ([1]; 200 mg/kg po, Day −1-d21, Vehicle 28 days): 31 days
- anti-metastatic activity as assessed by fluorescence intensity of lung homogenates ([1]; late intervention (Dosed Day 3 through 23) as compared to Vehicle): superior anti-metastatic activity
- LOX-GFP ascites growth [2, 3]: inhibited LOX-GFP ascites growth at several doses
- dose dependence of LOX-GFP ascites growth inhibition [2, 3]: not dose-dependent

Structure (SMILES): COc1ccc(F)c(F)c1C(=O)c1cnc(NC2CCN(S(C)(=O)=O)CC2)nc1N [Compound A, [4-Amino-2-(1-methanesulfonyl-piperidin-4-ylamino)-pyrimidin-5-yl]-(2,3-difluoro-6-methoxy-phenyl)-methanone]
- LOX-GFP ascites cell growth ([2]; Compound A 40 mg/kg po, 2 doses (Days 5 & 6), ascites harvest Day 7): reduced cell growth
- LOX-GFP ascites cell growth ([2]; Compound A 40 mg/kg po, 3 doses (Days 4, 5 & 6), ascites harvest Day 7): reduced cell growth maximally
- LOX-GFP ascites cell growth ([2]; Compound A 40 mg/kg po, single dose (Day 6), ascites harvest Day 7): did not inhibit cell growth

Structure (SMILES): COc1ccc(C2=NC(c3ccc(Cl)cc3)C(c3ccc(Cl)cc3)N2C(=O)N2CCNC(=O)C2)c(OC(C)C)c1 (stereo not drawn) [Compound B, 4-[4,5-Bis-(4-chloro-phenyl)-2-(2-isopropoxy-4-methoxy-phenyl)-4,5-dihydro-imidazole-1-carbonyl]-piperazin-2-one]
- LOX-GFP ascites growth ([2]; 40 mg/kg sc, 6 doses, ascites harvest Day 8): demonstrated inhibitory effects on LOX-GFP ascites growth

Structure (SMILES): CCOc1ccnc2ccc(/C=C3\SC(N[C@@H](CO)c4ccccc4)=NC3=O)cc12 [Compound C, 5-(4-Ethoxy-quinolin-6-ylmeth-(Z)-ylidine)-2-(2-hydroxy-1-(R)-phenyl-ethylamino)-thiazol-4-one]
- LOX-GFP ascites growth ([2]; 200 mg/kg po bid, 12 doses, ascites harvest Day 8): demonstrated inhibitory effects on LOX-GFP ascites growth

Structure (SMILES): Cc1[nH]nc2c1N=C(c1ccccc1Cl)c1cc(N)ccc1N2 [Compound E]
- TGI % At day 25 (tumor growth inhibition relative to Vehicle control group) ([1]; 5 mg/kg po, Day 3-23): 82.3%
- RFU (mean ± SD) of lung homogenate ([1]; 5 mg/kg po, Day 3-23, lungs at day 25): 8618508 ± 3198528 RFU
- ILS % (increased lifetime-span) ([1]; 5 mg/kg po, Day 3-d23): 16.7%
- 50% survival days ([1]; 5 mg/kg po, Day 3-d23, Vehicle 24 days): 28 days
- TGI % At day 25 (tumor growth inhibition relative to Vehicle control group) ([1]; 5 mg/kg po, Day −1-7): −5.9%
- RFU (mean ± SD) of lung homogenate ([1]; 5 mg/kg po, Day −1-7, lungs at day 25): 51670506 ± 29321586 RFU
- TGI % At day 25 (tumor growth inhibition relative to Vehicle control group) ([1]; 5 mg/kg po, Day −1-23): 73.9%
- RFU (mean ± SD) of lung homogenate ([1]; 5 mg/kg po, Day −1-23, lungs at day 25): 12738540 ± 5426672 RFU
- ILS % (increased lifetime-span) ([1]; 5 mg/kg po, Day −1-d7): 4.2%
- 50% survival days ([1]; 5 mg/kg po, Day −1-d7, Vehicle 24 days): 25 days
- ILS % (increased lifetime-span) ([1]; 5 mg/kg po, Day −1-d23): 16.7%
- 50% survival days ([1]; 5 mg/kg po, Day −1-d23, Vehicle 24 days): 28 days
- anti-metastatic activity as assessed by fluorescence intensity of lung homogenates ([1]; late intervention (Dosed Day 3 through 23) vs full length intervention (Day −1 through 23)): equivalent anti-metastatic activity

Structure (SMILES): CC(=O)O[C@H]1C(=O)[C@@]2(C)[C@H]([C@H](OC(=O)c3ccccc3)[C@]3(O)C[C@H](OC(=O)[C@H](O)[C@@H](NC(=O)c4ccccc4)c4ccccc4)C(C)=C1C3(C)C)[C@]1(OC(C)=O)CO[C@@H]1C[C@@H]2O [Taxol, reference compound]
- LOX-GFP ascites cell growth ([2]; Taxol 10 mg/kg iv, 2 doses (Days 5 & 6), ascites harvest Day 7): reduced cell growth
- LOX-GFP ascites cell growth ([2]; Taxol 10 mg/kg iv, 3 doses (Days 4, 5 & 6), ascites harvest Day 7): reduced cell growth maximally
- LOX-GFP ascites cell growth ([2]; Taxol 10 mg/kg iv, single dose (Day 6), ascites harvest Day 7): did not inhibit cell growth
